Source: patent US6962909B2, “Treatment of neovascularization disorders with squalimine” (Genaera Corporation, priority 1995, dated 2005)
≈ marks a conversion by molar mass, not a printed value. Entries after “also recorded” stand apart in the source; their conditions may differ.

How the values were obtained:
[1] = system: L1210 lymphoblastic leukemia cells; assay: Mouse model of L1210 leukemia
Method: C57B mice were inoculated with L1210 lymphoblastic leukemia cells at an inoculum that causes leukemia in 100% of animals. Mice received compound 1436 at 1, 5, 10 mg/kg every 3 days intraperitoneally.
Of particular interest is the hematological profile determined during the course of treatment. Animals were treated with cisplatin and compound 1436.

NHE3 = NHE3 (Rattus norvegicus, UniProt P26433); settings: cited from earlier work
NHE2 = settings: cited from earlier work
[2] = Fasting blood glucose in mice; type: in vivo
Method: To study the effect of steroid administrator or the NHE responsible for secretion of insulin, several of the aminosterols from shark liver were administered to fasting mice. Male CD-1 mice were assigned to one of four treatment groups. Whole blood glucose was tested using glucometer (Lifescan Glucometer II and One Touch test strips). Statistical analysis was via one-way analysis of variance (ANOVA) followed by subsequent Bonferonni's t-test.

[3] = system: PHA-stimulated human lymphocytes; assay: Inhibition of mitogen-stimulated growth of human T-cells; type: cell-based; settings: 72 hours
Method: Human heparinized blood, freshly collected, was introduced into tissue culture flasks containing 10 μg/ml phytohaemagglutinin (PHA) in RPMI medium with 10% FCS. Various purified steroids were introduced subsequently at concentrations of 1, 5, and 10 μg/ml. Cultures were incubated for 72 hours, after which time colcemid was added to 1 μg/ml. Cultures were maintained for an additional 2 hours, and cells collected. Mitotic figures were estimated using standard cytochemical techniques, following Giemsa staining.

[4] = system: Human ovarian carcinoma SKOV3; assay: In vitro cell growth inhibition (assay of Baker et al.); type: cell-based
Method: (§1) As set forth in Table 7 below, all malignant tumors evaluated in tissue culture, endothelial cells and vascular smooth muscle cells were sensitive to inhibition. Thus, compound 1436 has application in the control of growth factor dependent proliferation of many types of tissue.
Using the assay described above, the anticancer effects of compound 1437 against several cancer lines was assessed.

[5] = system: Stage 59-60 Xenopus tadpoles; assay: Xenopus tadpole assay; type: in vivo, Xenopus laevis; settings: 10 μg/ml in water; for Pharmacological response observed in tadpole: about 1 hour
Source text: A newly developed assay employing tadpoles, preferably Xenopus laevis Stages 59-60, were employed to study the effect of a compound by monitoring capillary occlusion in the tadpole's tail. […] The compounds of the invention affect the shape, viability and integrity of the embryonic tissues while not affecting the adult tissues, providing a powerful, highly specific screen. For example, substances that destroy all of the animal's epithelium, both adult and embryonic, could be regarded as toxic.
In this assay, tadpoles are introduced into Petri dishes containing a solution of the test compound in distilled water, preferably about 100 ml. The preferred concentration of the test compound is from about 1 μg/ml to about 10 μg/ml. The volume of liquid is sufficient for the animal to swim freely and drink from the solution. Thus, the effect observed results from oral absorption and subsequent systemic distribution of the agent. If the volume of liquid is not sufficient to permit oral intake, the effects that are observed would result from absorption through the surface epithelium. Thus, this simple assay can identify if an compound has characteristics of oral availability.
After an amount of time, typically about 60 minutes, the occlusion of blood flow through capillaries in the tadpole's tail are observed under an inverted microscope at a magnification of roughly 100×.
The tadpole assay described above provides an advantageous way to determine the pharmacological targets of each steroid when introduced into a mammal, and to determine pharmacological categories into which synthetic compounds belong. In the assay, each of the steroids was dissolved in 100 ml of distilled water at a concentration of 10 μg/ml. Stage 59-60 Xenopus tadpoles were introduced and evaluated by light microscopy and gross observation 1 hour later.

MTT (Table II) = type: cell-based
Source text: As set forth in Table II, which follows Table I, the activities of natural and synthetic aminosterols in the different assays vary. In light of the foregoing, it is now possible to screen for steroids with or without squalamine-like pharmacological activity.

[6] = system: human microvascular cells; assay: Endothelial cord formation assay; type: cell-based
Source text: Endothelial cells have the capacity in vitro to form tubular aggregates resembling capillaries in various early stages of formation. This conversion occurs under relatively specific conditions, in which essential growth factors along with an effective substratum are provided. It has been shown that both the interaction of growth factors with the endothelial cell and its attachment to a substratum activate the NHE. The activation of this exchanger is believed to be required for subsequent morphologic transformation of the endothelial cell into a multicellular tubular structure.
To assess the effect of compounds on the cord-like structures formed by human microvascular cells when plated in the presence of VGEF (Vascular Endothelial Growth Factor) and basic fibroblast growth factor on a collagen matrix, a standard cord formation assay was used.

Lewis lung carcinoma = assay: In vitro cell growth inhibition (assay of Baker et al.); type: cell-based
Source text: as §1

[7] = system: vitelline capillaries of 3- to 5-day chick embryo; assay: Chick embryo vitelline capillary regression assay; type: in vivo; design: key to Vascular reactivity (capillary regression): + = Vascular reactivity; 0 = No vascular reactivity; +/− = Equivocal reactivity; settings: for Vascular reactivity (capillary regression): 60 minutes
Method: Using the chick embryo vitelline capillaries assay, compounds were tested for their ability to induce capillary regression. Each compound was applied in 0.1 ml of 15% Ficol 400 and PBS onto the embryo, and vascular regression was assessed after 60 minutes.
The 3-day chick embryo consists of an embryonic disc from which numerous vessels emerge and return, forming a “figure 8”-shaped structure—the embryo in the center with vascular loops extending outward over both poles. […] Following a lag period of around 15 minutes, the constriction of continuity between capillary and secondary vessels, generally on the “venous” side, was observed. Continued pulsatile blood flow progressed, resulting in a “swelling” of the blind tube, followed by a pinching off of the remaining connection and formation of an enclosed vascular sac resembling a “blood island.” This process progressed until only the largest vessels remained intact.

Human melanoma WM 1167 = assay: Cytotoxic activity against cancer cells
NHE1 = NHE1 (Homo sapiens, UniProt P19634); settings: cited from earlier work
B16 melanoma = assay: Growth of B16 melanoma in C57B mice; type: in vivo; settings: subcutaneous administration
Method: The growth of B16 melanoma in C57B mice is dependent upon neovascularization.
Using the growth of B16 melanoma cells in C57B mice, a recognized model for the evaluation of inhibitors of angiogenesis on the growth of cancers, the effects of subcutaneous, intraperitoneal and oral administration of squalamine were evaluated.
Animals were implanted with B16 melanoma followed by treatment with compound 1436 or 1256 administered in a combined schedule or separately. […] Thus, a combination of these two compounds achieves a therapeutic benefit in tumors dependent on neovascularization that may prevent metastatic spread.

Mouse IV PK study = settings: in vivo
Method: To assess clearance, a mouse IV PK study was performed for compound 319 and squalamine. The compound was administered i.v. and blood samples were taken every 10 minutes. The concentration of the administered steroid was determined by HPLC analysis.

P. aerug = assay: Antibiotic activity, MIC
E. coli = assay: Antibiotic activity, MIC; type: cell-based; settings: Escherichia coli
C. albicans = assay: Antibiotic activity, MIC; settings: Candida albicans
S. aureus = assay: Antibiotic activity, MIC; type: cell-based; settings: Staphylococcus aureus
[8] = mice with 5 × 10^5 L1210 cells ip, cisplatin 8 mg/kg ip, compound 1436 10 mg/kg ip q4d

NHE3, sequence (P26433 29-831): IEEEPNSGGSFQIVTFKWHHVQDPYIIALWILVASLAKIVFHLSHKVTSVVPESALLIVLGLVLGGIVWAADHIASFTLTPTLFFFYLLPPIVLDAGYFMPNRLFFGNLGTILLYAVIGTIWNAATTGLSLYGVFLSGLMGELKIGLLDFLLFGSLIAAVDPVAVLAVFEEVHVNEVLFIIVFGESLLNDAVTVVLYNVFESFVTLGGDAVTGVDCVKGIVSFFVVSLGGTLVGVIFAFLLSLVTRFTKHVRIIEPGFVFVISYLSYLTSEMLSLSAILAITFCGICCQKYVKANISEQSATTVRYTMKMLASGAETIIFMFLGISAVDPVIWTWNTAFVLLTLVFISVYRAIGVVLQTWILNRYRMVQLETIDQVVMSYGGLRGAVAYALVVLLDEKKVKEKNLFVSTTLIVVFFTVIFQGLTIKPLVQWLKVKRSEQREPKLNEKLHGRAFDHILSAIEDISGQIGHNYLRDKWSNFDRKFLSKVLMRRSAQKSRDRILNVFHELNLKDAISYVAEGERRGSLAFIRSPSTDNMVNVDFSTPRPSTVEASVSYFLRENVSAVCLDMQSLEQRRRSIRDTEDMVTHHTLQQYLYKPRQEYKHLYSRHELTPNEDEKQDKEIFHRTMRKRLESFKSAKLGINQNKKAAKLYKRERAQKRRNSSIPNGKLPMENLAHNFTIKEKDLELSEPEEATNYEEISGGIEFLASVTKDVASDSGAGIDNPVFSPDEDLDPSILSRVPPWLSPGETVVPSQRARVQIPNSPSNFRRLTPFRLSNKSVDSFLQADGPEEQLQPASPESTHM
NHE1, sequence (P19634 whole entry, species assumed): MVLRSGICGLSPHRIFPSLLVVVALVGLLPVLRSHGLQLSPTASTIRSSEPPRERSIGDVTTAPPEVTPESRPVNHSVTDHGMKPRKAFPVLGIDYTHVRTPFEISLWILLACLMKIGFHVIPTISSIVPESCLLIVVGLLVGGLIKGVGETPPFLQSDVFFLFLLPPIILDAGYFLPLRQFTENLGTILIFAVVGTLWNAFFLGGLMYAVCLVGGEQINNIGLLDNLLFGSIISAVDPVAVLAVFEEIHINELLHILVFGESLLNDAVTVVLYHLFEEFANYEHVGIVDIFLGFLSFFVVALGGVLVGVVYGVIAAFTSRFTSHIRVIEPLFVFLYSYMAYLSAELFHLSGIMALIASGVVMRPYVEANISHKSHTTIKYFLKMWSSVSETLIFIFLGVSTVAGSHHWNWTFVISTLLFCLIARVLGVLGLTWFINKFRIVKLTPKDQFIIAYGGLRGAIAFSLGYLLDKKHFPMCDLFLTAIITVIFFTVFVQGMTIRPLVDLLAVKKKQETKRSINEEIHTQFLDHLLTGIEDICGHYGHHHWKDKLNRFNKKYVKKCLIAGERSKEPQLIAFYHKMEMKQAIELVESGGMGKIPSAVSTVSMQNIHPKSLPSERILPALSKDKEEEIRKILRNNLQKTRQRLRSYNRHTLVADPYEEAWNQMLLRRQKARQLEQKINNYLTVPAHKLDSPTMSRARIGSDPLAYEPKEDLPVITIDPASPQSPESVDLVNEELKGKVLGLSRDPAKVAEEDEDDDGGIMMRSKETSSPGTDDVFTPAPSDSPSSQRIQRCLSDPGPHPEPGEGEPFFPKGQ

Compound: N.N.[Cl][Pt][Cl] [Cisplatin, reference compound]
- Hematological profile during treatment ([1]; by day 28): developed a profound anemia by day 28
- RBC, Early Time [1, 8]: 9.4 10^6/mm^3
- RBC, Late Time [1, 8]: 1.5 10^6/mm^3
- WBC, Early Time [1, 8]: 8.1 10^3/mm^3
- WBC, Late Time [1, 8]: 18.1 10^3/mm^3

Compound: N=C(N)NC(=O)c1nc(Cl)c(N)nc1N [Amiloride]
- Ki (NHE3): 100 µM
- Ki (NHE2): 3 µM

Compound: CC(CCC(CO)(OS(=O)(=O)O)C(C)C)[C@H]1CCC2C3C(CC[C@@]21C)[C@@]1(C)CC[C@H](NCCCNCCCCN)C[C@@H]1C[C@H]3O (stereo partly drawn) [Compound 1437]
- Effect on blood glucose ([2]; intravenous, 1436 in D5W (5% glucose), 1437 in water): caused hyperglycemia in mice
- Fasting Blood Glucose Mean + SEM ([2]; male CD-1 mice, 2 × 10 mg/kg i.v. (total 20 mg/kg), overnight fast, blood 30 min. after 2d dose, 1437 and 1256 in H2O, 1436 in D5W): 82 ± 15.3 mg/dL
- Inhibition of PHA-stimulated human lymphocytes ([3]; 10 μg/ml): 10 % control
- Anticancer activity [4]: exhibit anticancer activity
- Pharmacological response observed in tadpole [5]: Epithelium covering the embryonic portions of the animal, such as the tail and antennae, began to slough off in sheets; also recorded: the larval skin was observed to shed off in a sheet

Compound: CC(CC[C@@H](OS(=O)(=O)O)C(C)C)[C@H]1CCC2C3C(CC[C@@]21C)[C@@]1(C)CC[C@H](NCCCNCCCCN)C[C@@H]1C[C@H]3O (stereo partly drawn) [drawing 164]
- MTT (MTT (Table II)): 32 µg/mL

Compound: CC(C)CCCC(C)[C@H]1CCC2C3CC[C@H]4C[C@@H](NCCCNCCCCNCCCN)CC[C@]4(C)C3CC[C@@]21C (stereo partly drawn) [Compound 353]
- Effect on endothelial cord formation ([6]; 0.1 μg/ml): +
- Effect on endothelial cord formation ([6]; 1.0 μg/ml): +
- Effect on endothelial cord formation ([6]; 10.0 μg/ml): +
- IC50 (Lewis lung carcinoma): 1.9 µg/mL (≈ 3.32 µM)
- Vascular reactivity (capillary regression) ([7]; 1 μg applied): +/−
- Effect on chick embryo capillary bed ([7]; in vivo): no effect on the chick embryo capillary bed
- Mechanism of cell death in exposed cells (Human melanoma WM 1167): apoptotic cell death has been induced
- IC50 (Human melanoma WM 1167; Homo sapiens): 3 µg/mL (≈ 5.24 µM)
- Pharmacological category in tadpole assay (similarity to a reference steroid) [5]: effects like those produced by compound 1436

Compound: CC(COS(=O)(=O)O)C(=O)CCC(C)[C@H]1CCC2C3C(CC[C@@]21C)[C@@]1(C)CC[C@H](NCCCNCCCCN)C[C@@H]1C[C@H]3O (stereo partly drawn) [Compound 1360]
- Inhibition of PHA-stimulated human lymphocytes ([3]; 1 μg/ml): 5 % control
- Inhibition of PHA-stimulated human lymphocytes ([3]; 5 μg/ml): 5 % control
- Inhibition of PHA-stimulated human lymphocytes ([3]; 10 μg/ml): 5 % control
- Vascular reactivity (capillary regression) ([7]; 1 μg applied): 0
- Effect on blood circulating through the embryonic vessels ([7]; within 20 minutes of application): exhibited a brighter red color
- Pharmacological response observed in tadpole [5]: Swelling and lysis of certain erythrocytes occurred, resulting in accumulation of nuclei within certain small vessels of the tail
- Pharmacological response observed in tadpole ([5]; listed as compound 1360): extensive vasocclusion occurred within 60 minutes throughout the tail

Compound: CC(C)CCCC(C)[C@H]1CCC2C3CC[C@H]4C[C@@H](NCCCNCCCCNCCCN)CC[C@]4(C)C3CC[C@@]21C (stereo partly drawn) [drawing 96]
- Cord Formation, Minimum Effective Concentration [6]: 10 µg/mL
- MTT (MTT (Table II)): 19 µg/mL

Compound: CCCN(C)c1nc(N)c(C(=O)N=C(N)N)nc1Cl [MPA, methylpropylamiloride]
- Ki (NHE3): 10 µM
- Ki (NHE2): 5 µM
- Ki (NHE1): 0.08 µM

Compound: dimethylamiloride [DMA]
- Ki (NHE3): 11 µM
- Ki (NHE2): 0.7 µM
- Ki (NHE1): 0.1 µM

Compound: CC(CCC(=O)O)[C@H]1CCC2C3CC[C@H]4C[C@@H](NCCCNCCCCN)CC[C@]4(C)C3CC[C@@]21C (stereo partly drawn) [Compound 319]
- Effect on endothelial cord formation ([6]; 0.01 μg/ml): −
- Effect on endothelial cord formation ([6]; 0.1 μg/ml): +
- Effect on endothelial cord formation ([6]; 1.0 μg/ml): +
- Effect on endothelial cord formation ([6]; 10.0 μg/ml): +
- Vascular reactivity (capillary regression) ([7]; 0.001 μg applied): +/−
- Vascular reactivity (capillary regression) ([7]; 0.01 μg applied): +
- Vascular reactivity (capillary regression) ([7]; 0.1 μg applied): +
- Vascular reactivity (capillary regression) ([7]; 1 μg applied): +
- Vascular reactivity (capillary regression) ([7]; 10 μg applied): +
- Control of B16 melanoma (B16 melanoma): achieved control of B16 in C57B mice to an extent almost comparable to squalamine
- Pharmacological category in tadpole assay (similarity to a reference steroid) [5]: common vascular occlusive effect
- half-life (Mouse IV PK study): ~14 min

Compound: CS(=O)(=O)c1cc(C(=O)NC(=N)N)ccc1N1CCCCC1 [(3-methylsulfonyl-4-piperidinobenzoyl) guanidine methanesulfonate]
- Ki (NHE3): 650 µM
- Ki (NHE2): 5 µM
- Ki (NHE1): 0.16 µM

Compound: CC(CC[C@@H](OS(=O)(=O)O)C(C)C)[C@H]1CCC2C3C(CC[C@@]21C)[C@@]1(C)CC[C@H](NCCCNCCCCNCCCN)C[C@@H]1C[C@H]3O (stereo partly drawn) [drawing 170]
- MTT (MTT (Table II)): 67 µg/mL

Compound: CC(C)CCCC(C)[C@H]1CCC2C3CC[C@H]4C[C@H](NCCCNCCCCNCCCN)CC[C@]4(C)C3CC[C@@]21C (stereo partly drawn)
- MIC (P. aerug): 64 µg/mL (≈ 112 µM)
- MIC (E. coli): 64 to 128 µg/mL (≈ 112 to 223 µM)
- MIC (C. albicans): 16 to 32 µg/mL (≈ 27.9 to 55.8 µM)
- MIC (S. aureus): 8 µg/mL (≈ 14 µM)

Compound: CC(CCC(=O)O)[C@H]1CCC2C3C(CC[C@@]21C)[C@@]1(C)CC[C@H](NCCCNCCCCN)C[C@@H]1C[C@H]3O (stereo partly drawn)
- MIC (P. aerug): 32 µg/mL (≈ 61.6 µM)
- MIC (E. coli): 64 µg/mL (≈ 123 µM)
- MIC (C. albicans): 128 µg/mL (≈ 246 µM)
- MIC (S. aureus): 32 µg/mL (≈ 61.6 µM)

Compound: CC(C)C(O)CCC(C)[C@H]1CCC2C3C(CC[C@@]21C)[C@@]1(C)CC[C@@H](NCCCNCCCCN)C[C@@H]1C[C@H]3O (stereo partly drawn)
- MIC (P. aerug): 256 µg/mL (≈ 467 µM)
- MIC (E. coli): 128 µg/mL (≈ 234 µM)
- MIC (C. albicans): 64 µg/mL (≈ 117 µM)
- MIC (S. aureus): 16 to 32 µg/mL (≈ 29.2 to 58.4 µM)

Compound: C[C@@H](O)C1CCC2C3CC[C@H]4C[C@@H](NCCCNCCCCN)CC[C@]4(C)C3CC[C@@]21C (stereo partly drawn)
- MIC (P. aerug): 256 µg/mL (≈ 572 µM)
- MIC (E. coli): 32 to 64 µg/mL (≈ 71.5 to 143 µM)
- MIC (C. albicans): 64 µg/mL (≈ 143 µM)
- MIC (S. aureus): 4 µg/mL (≈ 8.93 µM)
